Laboratory results published in patent US12285489B2, “Bone targeted antimicrobial oxazolidinone related compounds, formulations thereof, and uses thereof” (priority 2018, dated 2025).
Converted amounts (≈) assume the structure as drawn. Where two headings read alike, the source gives them in different places.

How the values were obtained:
Assay type in all cases: cell-based
S. aureus [1] = assay: Antimicrobial susceptibility (MIC/MBEC), standard assays in polystyrene wells; settings: for MIC: Staphylococcus aureus
S. aureus [2] = assay: Preventative hydroxyapatite (HA) experiment; settings: K-W test, p<0.01; comparator=control; FIG. 16
Source text: FIG. 16 depicts the results of a preventative hydroxyapatite (HA) experiment with tested compounds against S. aureus.
FIG. 16 depicts the results of a preventative hydroxyapatite (HA) experiment with tested compounds against S. aureus. […] (K-W test, * p<0.01; comparator=control). The results were obtained using standard assays.

S. aureus biofilm [3] = assay: Ex vivo rat femur biofilm prevention setting; settings: rat femurs saturated with compound; K-W test, p<0.01; comparator=control; FIG. 18B
Source text: (§1) FIG. 18A is a picture of rat femurs saturated with antibiotics or the conjugates after they are introduced to a solution of S. aureus in our ex vivo preventative experimental setting. The more the bone appears red, the more staphylococcal biofilms there are adhered to the surface in those regions.
as §1, with “depicts” for “is”

S. aureus biofilm [4] = assay: Ex vivo rat femur biofilm eradication setting; settings: K-W test, p<0.01, comparator=control, FIG. 18B
Aa = assay: Antimicrobial susceptibility (MIC/MBEC), standard assays in polystyrene wells
[5] = S. aureus, polystyrene wells, read-out: MIC

| SMILES | MBEC (S. aureus [1]; S. aureus, polystyrene wells) [µg/mL] | MIC (S. aureus [1]; [5]) [µg/mL] | efficacy for preventing the growth of staphylococcal cells on HA (S. aureus [2]) | S. aureus biofilm prevention on femurs ex vivo (S. aureus biofilm [3]) | S. aureus biofilm eradication on femurs ex vivo (S. aureus biofilm [4]) | MBEC (Aa) [µg/mL] | MIC (Aa) [µg/mL] | MIC (S. aureus [1]) [µg/mL] |
| --- | --- | --- | --- | --- | --- | --- | --- | --- |
| Cn1nnc(-c2ccc(-c3ccc(N4C[C@H](COC(=O)Nc5ccc(CC(P(=O)(O)O)P(=O)(O)O)cc5)OC4=O)cc3F)cn2)n1 [BCT, (R)-(2-(4-((((3-(3-fluoro-4-(6-(2-methyl-2H-tetrazol-5-yl)pyridin-3-yl)phenyl)-2-oxooxazolidin-5-yl)methoxy)carbonyl)amino)phenyl)ethane-1,1-diyl)bis(phosphonic acid)] | 32 | 16 (≈ 23.6 µM) | – | – | – | – | – | – |
| Cn1nnc(-c2ccc(-c3ccc(N4C[C@H](COC(=O)c5ccc(CC(P(=O)(O)O)P(=O)(O)O)cc5)OC4=O)cc3F)cn2)n1 [BET, (R)-(2-(4-(((3-(3-fluoro-4-(6-(2-methyl-2H-tetrazol-5-yl)pyridin-3-yl)phenyl)-2-oxooxazolidin-5-yl)methoxy)carbonyl)phenyl)ethane-1,1-diyl)bis(phosphonic acid)] | 16 | 4 (≈ 6.04 µM) | statistically significant efficacy for preventing the growth of staphylococcal cells | significantly prevented or eradicated biofilm growth | significantly prevented or eradicated biofilm growth | – | – | – |
| O=C(O)c1cn(C2CC2)c2cc(N3CCNCC3)c(F)cc2c1=O [C, Ciprofloxacin] | 32 | 0.5 (≈ 1.51 µM) | – | – | – | 8 | 0.5 (≈ 1.51 µM) | – |
| CN(C)c1ccc(O)c2c1C[C@H]1C[C@H]3[C@H](N(C)C)C(O)=C(C(N)=O)C(=O)[C@@]3(O)C(O)=C1C2=O [M, Minocycline] | 16 | 0.25 (≈ 0.546 µM) | – | – | – | 8 | 2 (≈ 4.37 µM) | – |
| Cn1nnc(-c2ccc(-c3ccc(N4C[C@H](CO)OC4=O)cc3F)cn2)n1 [T, Tedizolid] | 8 | 0.5 (≈ 1.35 µM) | – | – | – | – | – | – |
| CN[C@H](CC(C)C)C(=O)N[C@H]1C(=O)N[C@@H](CC(N)=O)C(=O)N[C@H]2C(=O)N[C@H]3C(=O)N[C@H](C(=O)N[C@H](C(=O)O)c4cc(O)cc(O)c4-c4cc3ccc4O)[C@H](O)c3ccc(c(Cl)c3)Oc3cc2cc(c3O[C@@H]2O[C@H](CO)[C@@H](O)[C@H](O)[C@H]2O[C@H]2C[C@](C)(N)[C@H](O)[C@H](C)O2)Oc2ccc(cc2Cl)[C@H]1O [V, Vancomycin] | 8 | – | – | – | – | – | – | 1 (≈ 0.69 µM) |
| COc1c(N2C[C@@H]3CCCN[C@@H]3C2)c(F)cc2c(=O)c(C(=O)O)cn(C3CC3)c12 [X, Moxifloxacin] | 0.5 | 0.05 (≈ 0.125 µM) | – | – | – | 0.1 | 0.05 (≈ 0.125 µM) | – |
